From US10758542B2, “Substituted pyrazolo[l,5-a]pyrimidine compounds as Trk kinase inhibitors” (Array BioPharma Inc., priority 2009, dated 2020)

Target: Human Jak2 kinase domain (Homo sapiens (Human), UniProt O60674)
Experiment: Jak2 inhibition assay (Omnia kinase)
Assay type: biochemical
Conditions: read-out: Jak2 Enzyme (% inhibition at 1000 nM), Table 1; at 1000 nM test compound
Source text: The assays described in Examples C, D, E and F for the determination of JAK1, JAK2, JAK3 and Tyk2 kinase activity, respectively, utilized the Omnia® Kinase fluorescence peptide substrate-based technology (Invitrogen). The specific components of the assay mixture are described in Examples C, D and E. […] Two-μL aliquots of these were transferred to a fresh plate for a ten-fold intermediate dilution with assay buffer. […] Human Jak2 kinase domain comprising amino acids 808-1132 was purchased from Invitrogen Corporation, Carlsbad, Calif.

Chain of Human Jak2 kinase domain (O60674 808-1132): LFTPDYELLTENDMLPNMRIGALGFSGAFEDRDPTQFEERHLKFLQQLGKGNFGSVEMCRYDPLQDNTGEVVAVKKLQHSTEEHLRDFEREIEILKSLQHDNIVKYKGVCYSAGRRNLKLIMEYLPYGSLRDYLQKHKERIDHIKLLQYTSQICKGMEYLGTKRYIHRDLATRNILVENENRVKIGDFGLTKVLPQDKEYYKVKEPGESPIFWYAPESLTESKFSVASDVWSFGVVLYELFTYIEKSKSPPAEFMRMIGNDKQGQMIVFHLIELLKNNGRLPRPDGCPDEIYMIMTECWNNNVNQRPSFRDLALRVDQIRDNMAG

inhibition at 1 µM [%]	SMILES
82.5	CC1(O)CCC(NC(=O)c2cnn3ccc(N4CCC[C@@H]4c4cc(F)ccc4F)nc23)CC1 (stereo partly drawn) [Example 51, 5-((R)-2-(2,5-difluorophenyl)pyrrolidin-1-yl)-N-(4-hydroxy-4-methylcyclohexyl)pyrazolo[1,5-a]pyrimidine-3-carboxamide]
25.2	C[C@@H](NC(=O)c1cnn2ccc(N3CCC[C@@H]3c3cncc(F)c3)nc12)C(F)(F)F [Example 129, 5-((R)-2-(5-fluoropyridin-3-yl)pyrrolidin-1-yl)-N-((R)-1,1,1-trifluoropropan-2-yl)pyrazolo[1,5-a]pyrimidine-3-carboxamide]
14.4	O=C(N[C@@H]1CCC[C@H]1O)c1cnn2ccc(N3CCC[C@@H]3c3cncc(F)c3)nc12 [Example 133, 5-((R)-2-(5-fluoropyridin-3-yl)pyrrolidin-1-yl)-N-((1R,2R)-2-hydroxycyclopentyl)pyrazolo[1,5-a]pyrimidine-3-carboxamide]
12.5	CCc1ncc(F)cc1[C@H]1CCCN1c1ccn2ncc(C(=O)N[C@H]3CC[C@H](O)C3)c2n1 [Example 200, 5-((R)-2-(2-ethyl-5-fluoropyridin-3-yl)pyrrolidin-1-yl)-N-((1S,3S)-3-hydroxycyclopentyl)pyrazolo [1,5-a]pyrimidine-3-carboxamide]
